{"source": "patent US4797427A", "about": "“Aromatic diamines containing sulfonic acid aryl esters, a process for their production and their use in the production of polyurethane plastics” (Bayer Aktiengesellschaft, priority 1987, dated 1989)", "experiment": "Ames test", "assay_type": "cell-based", "data": [{"smiles": "Cc1c(N)cc(S(=O)(=O)Oc2ccccc2)cc1N", "note": "[2,6-diaminotoluene-4-sulfonic acid phenyl ester]", "values": [{"measurement": "Ames test", "value": "Ames-negative"}]}]}
